The numbers were not newly measured in US20230381139A1, “METHODS OF TREATING AND/OR PREVENTING ALZHEIMER’S DISEASE WITH R-CARVEDILOL” (priority 2020, published 2023), which cites them from elsewhere.

The test system of this series is RyR2. The following applies: cardiac cells; cited from earlier work.

As to `COc1ccccc1OCCNC[C@@H](O)COc1cccc2[nH]c3ccccc3c12` [R-carvedilol, R-(+)-carvedilol], the RyR2 open time result is listed as “shortened”.
